Data reported in patent publication US20250243170A1, “REMIBRUTINIB DRUG SUBSTANCE AND DRUG PRODUCT SUBSTANTIALLY FREE OF NITROSAMINE IMPURITY” (NOVARTIS AG, priority 2024, published 2025).
Several values for one entry are separate records, joined by “and”; a condition that tells them apart may be missing. Equal values may be shown once. Entries after “also recorded” stand apart in the source; their conditions may differ. One block for each molecule: values may come before it.

Columns and labels:
[1] = Accelerated predictive stability (APS) of LOU064 drug substance, open dish; assay type: physicochemical; details: for Nitrosamine impurity: open dish
Description: (§1) • Limit-test by LC-MS (SIM mode), AJS-ES, positive mode, SIM Ion: 483.2 [M+H]+ • Column: YMC-Triart C18, 100×3.0 mm, particle size 1.9 μm, 12 nm • Mobile phase A: Dissolve 0.315 g of Ammonium formate in 1000 ml of water, add 0.5 mL of formic acid • Mobile phase B: Methanol • Sample solvent: Methanol+0.2% (v/v) Formic acid • Sample solution: approx. 100 mg of the sample in 20 mL • Flow: 0.6 mL/min • Injection volume: 3 μL • Autosampler cooled, 8° C. • Column temperature. 80° C. • Gradient: […]
A statistical based approach, Accelerated Predictive Stability (APS), using the humidity modified Arrhenius equation [Waterman and al., International Journal of Pharmaceutics 293 (1-2), 101-125 (2005)] is applied to understand stability behavior and predict the retest period. […] Short studies are conducted on open dish samples of representative batch(es) of drug substance at accelerated conditions using a wide range of temperatures and humidity with the goal of reaching the specification limit for the identified retest period limiting attributes at each condition as detailed below. […] The humidity corrected Arrhenius equation reflects both the influence of the temperature, and the moisture on the kinetics of the degradation product formation. The resulting open-dish data are fitted to a humidity-corrected Arrhenius equation^1 using ASAPprime® (current version 6.0): […]
3 batches of LOU064 drug substance were placed in open dish under the protocol summarized below:
(§2) The pulled samples were analyzed by HPLC-MS as per method described in example 1 and reported below in tables 8 and 9.

[2] = APS of LOU064 drug substance, closed vessel with or without nitrogen purge; assay type: physicochemical
Description: as §1
Samples of batches of LOU064 drug substance were prepared in duplicated in closed container, with one sample being purged with nitrogen and the other not.
as §2

[3] = system: Salmonella typhimurium strain TA98; experiment: Enhanced Ames Test (EAT), strain TA98; details: TA98, presence of hamster S-9
Description: (§3) N-(3-(6-amino-5-(2(methyl)(nitroso)amino)ethoxy)pyrimidin-4-yl)-5-fluoro-2-methylphenyl)-4-cyclopropyl-2-fluorobenzamide was evaluated in the EAT performed under GLP following the EMA and FDA guidance (2023) for the EAT conditions for N-nitrosamines.
(§4) In this study N-(3-(6-amino-5-(2(methyl)(nitroso)amino)ethoxy)pyrimidin-4-yl)-5-fluoro-2-methylphenyl)-4-cyclopropyl-2-fluorobenzamide was evaluated for mutations in Salmonella typhimurium strains TA98, TA100, TA1535 and TA1537 and Escherichia coli strain WP2 uvrA pKM101, both in the absence and presence of 30% rat and hamster metabolic activation (β-naphthoflavone/phenobarbital-induced rat and hamster liver post-mitochondrial S-9 fraction). The test used pre-incubation method (30 minutes). N-(3-(6-amino-5-(2(methyl)(nitroso)amino)ethoxy)pyrimidin-4-yl)-5-fluoro-2-methylphenyl)-4-cyclopropyl-2-fluorobenzamide was formulated in dimethyl sulfoxide (DMSO) at concentrations of 5, 16, 50, 160, 500, 1600 and 5000 μg/plate.
(§5) Following the recommendations of the EAT, in addition to the concurrent strain-specific positive controls, two nitrosamine positive controls, i.e. N-nitrosodiethylamine (NDEA) and N-methyl-N-nitroso-(2-phenylethyl)amine (MNPA) were used that are known to be mutagenic in the presence of S-9.

[4] = system: Salmonella typhimurium strain TA1535; experiment: Enhanced Ames Test (EAT), strain TA1535; details: TA1535, presence of hamster S-9
Description: as §3, §4, §5

[5] = Formulation analyses of EAT dosing formulations in DMSO; assay type: physicochemical; details: 6 hrs at room temperature
[6] = system: Salmonella typhimurium strain TA100; experiment: Enhanced Ames Test (EAT), strain TA100
Description: as §3, §4, §5

[7] = system: Salmonella typhimurium strains TA98, TA100, TA1535 and TA1537 and Escherichia coli strain WP2 uvrA pKM101; experiment: Enhanced Ames Test (EAT), all tester strains; assay type: cell-based
Description: The test used pre-incubation method (30 minutes).

[8] = Additional stress testing of F8 (inert gas, open vial, light); assay type: physicochemical; details: for formation of nitrosamine upon storage: several days, room temperature
Source text: (§6) The impact of protective gas (nitrogen) for storage vs storage in non-protected atmosphere, of light exposed vs dark conditions and the effect of temperature was investigated. In addition, the stability study samples pulled after 12 M of storage at different temperature and humidity were included into the assessment.

[9] = Stability of F8: nitrosamine content after 12 months storage; assay type: physicochemical; details: for growth of nitrosamine-content upon storage / change of nitrosamine-content upon storage: 12M; for Nitrosamine content in F8: double polyethylene-bags
Description: as §1, with “0.5 ml” for “0.5 mL”
as §6

[10] = Stability of intermediate F8: nitrosamine content upon air exposure; assay type: physicochemical
Description: as §1, with “0.5 ml” for “0.5 mL”

stability behavior of the nitrosamine impurity ([1]; all APS open dish conditions): stable
Nitrosamine impurity ([1]; 50° C., 75% RH, 14 days): 74.9 ppb
Nitrosamine impurity ([1]; 50° C., 75% RH, 21 days): 75.8 ppb
Nitrosamine impurity ([1]; 50° C., 75% RH, 28 days): 106.5 ppb and 106.8 ppb
Nitrosamine impurity ([1]; 60° C., 11% RH, 21 days): 87.1 ppb
Nitrosamine impurity ([1]; 60° C., 11% RH, 28 days): 113.5 ppb
Nitrosamine impurity ([1]; 60° C., 50% RH, 14 days): 77.0 ppb
Nitrosamine impurity ([1]; 60° C., 50% RH, 28 days): 106.6 ppb
Nitrosamine impurity ([1]; 60° C., 75% RH, 14 days): 69.8 ppb
Nitrosamine impurity ([1]; 60° C., 75% RH, 21 days): 82.7 ppb
Nitrosamine impurity ([1]; 60° C., 75% RH, 28 days): 119.1 ppb
Nitrosamine impurity ([1]; 70° C., 31% RH, 14 days): 77.9 ppb
Nitrosamine impurity ([1]; 70° C., 31% RH, 28 days): 113.3 ppb
Nitrosamine impurity ([1]; 70° C., 50% RH, 21 days): 83.2 ppb
Nitrosamine impurity ([1]; 70° C., 50% RH, 28 days): 108.3 ppb
Nitrosamine impurity ([1]; 70° C., 75% RH, 14 days): 82.6 ppb
Nitrosamine impurity ([1]; 70° C., 75% RH, 21 days): 83.2 ppb
Nitrosamine impurity ([1]; 80° C., 51% RH, 7 days): 105.3 ppb
Nitrosamine impurity ([1]; 80° C., 51% RH, 21 days): 75.5 ppb
Nitrosamine impurity ([1]; initial, 0 days): 99.1 ppb
Nitrosamine without Nitrogen purge ([2]; 60° C., 21 days): 72.5 ppb
nitrosamine with Nitrogen purge ([2]; 60° C., 21 days): 86.5 ppb
Nitrosamine without Nitrogen purge ([2]; 60° C., 27 days): 109.8 ppb
nitrosamine with Nitrogen purge ([2]; 60° C., 27 days): 110.4 ppb
Nitrosamine without Nitrogen purge ([2]; 70° C., 21 days): 67.0 ppb
nitrosamine with Nitrogen purge ([2]; 70° C., 21 days): 76.6 ppb
Nitrosamine without Nitrogen purge ([2]; 70° C., 27 days): 116.0 ppb
nitrosamine with Nitrogen purge ([2]; 70° C., 27 days): 109.4 ppb
Nitrosamine without Nitrogen purge ([2]; 80° C., 21 days): 59.6 ppb
nitrosamine with Nitrogen purge ([2]; 80° C., 21 days): 54.8 ppb
Nitrosamine without Nitrogen purge ([2]; 80° C., 27 days): 114.7 ppb
nitrosamine with Nitrogen purge ([2]; 80° C., 27 days): 119.2 ppb
Nitrosamine without Nitrogen purge ([2]; initial, 0 days): 99.1 ppb
nitrosamine with Nitrogen purge ([2]; initial, 0 days): 99.1 ppb
Compound: C=CC(=O)N(C)CCOc1c(N)ncnc1-c1cc(F)cc(NC(=O)c2ccc(C3CC3)cc2F)c1C [LOU064 drug substance, N-(3-(6-Amino-5-(2-(N-methylacrylamido)ethoxy)pyrimidin-4-yl)-5-fluoro-2-methylphenyl)-4-cyclopropyl-2-fluorobenzamide]
nitrosamine, stored closed under nitrogen versus closed without nitrogen ([2]; 60-80° C., up to 27 days): no difference observed beyond analytical variability

Compound: CN(CCc1ccccc1)N=O [MNPA, N-methyl-N-nitroso-(2-phenylethyl)amine]
increase in revertant numbers [3]: up to 1.9 fold

Compound: Cc1c(NC(=O)c2ccc(C3CC3)cc2F)cc(F)cc1-c1ncnc(N)c1OCCN(C)N=O [N-(3-(6-amino-5-(2(methyl)(nitroso)amino)ethoxy)pyrimidin-4-yl)-5-fluoro-2-methylphenyl)-4-cyclopropyl-2-fluorobenzamide]
increase in revertant numbers [4]: ≥ 3 fold
stability and homogenicity in the formulations [5]: demonstrated stability and homogenicity
increase in revertant numbers ([6]; TA100, presence of hamster S-9): ≥ 2 fold
mutagenicity in the presence of rat S-9 ([7]; 30% rat S-9): not mutagenic
Enhanced Ames Test (EAT) result ([7]; GLP, EMA and FDA guidance (2023) EAT conditions for N-nitrosamines, pre-incubation 30 minutes, 5-5000 μg/plate): positive; also recorded: mutagenic under sensitive metabolic conditions
mutagenicity without metabolic activation ([7]; absence of S-9): not mutagenic
Precipitation observed at ([7]; all tester strains, absence and presence of S-9, formulated in DMSO): 1600 μg/plate and/or 5000 μg/plate

formation of nitrosamine upon storage ([8]; open vial): rapid increase
growth of nitrosamine-content upon storage ([9]; 30° C./65% RH): > 100%
growth of nitrosamine-content upon storage ([9]; 40° C./75% RH): > 100%
change of nitrosamine-content upon storage ([9]; cold (5° C.)): only a minor rise
change of nitrosamine-content upon storage ([9]; frozen (−20° C.)): no increase
Nitrosamine content in F8 ([9]; 12 months, 5° C.): 323 ppb
Nitrosamine content in F8 ([9]; 12 months, 30° C., 65% RH): 595 ppb
Nitrosamine content in F8 ([9]; 12 months, 40° C., 75% RH): 647 ppb
Nitrosamine content in F8 ([9]; 12 months, −20° C.): 276 ppb
Nitrosamine content in F8 ([9]; T0): 300 ppb
Nitrosamine in F8 ([10]; Analyzed after 52 h air exp.): 533 ppb
Nitrosamine in F8 ([10]; Analyzed directly after weighting the sample): 86 ppb
Compound: CNCCOc1c(N)ncnc1-c1cc(F)cc(NC(=O)c2ccc(C3CC3)cc2F)c1C [F8]
effect of exposure to light on nitrosamine formation ([8]; light exposed vs dark): slightly accelerate conversion of F8 into nitrosamine
formation of nitrosamine upon storage ([8]; stored under inert gas): only a minor, yet constant formation of nitrosamine

Compound: CCN(CC)N=O [NDEA, N-nitrosodiethylamine, reference compound]
increase in revertant numbers ([6]; TA100, presence of 30% rat S-9): > 2 fold
